This note sets out measurements from publication PMC6522930, “Design, synthesis and biological activity evaluation of a new class of 2,4-thiazolidinedione compounds as insulin enhancers” (Journal of Enzyme Inhibition and Medicinal Chemistry, 2019).

The test system of series [1] is healthy mice. Put plainly: Insulin tolerance test (blood glucose under insulin load). It counts as in vivo. Particulars: for Effect in insulin tolerance test (in words): 10 mg kg^−1 d^−1; for Blood glucose levels 1 h / Blood glucose levels 2 h / Blood glucose levels 0 h: 10 mg kg^−1 d^−1 for 15 d; for Blood glucose levels 1 h: 1 h after s.c. insulin 0.2 μg kg^−1; for Blood glucose levels 2 h: 2 h after s.c. insulin 0.2 μg kg^−1; for Blood glucose levels 0 h: fasted 12 h, before insulin. Here is the method:
(§1) (1) Glucose tolerance test: The healthy mice (20 ± 2 g) were selected. After 1 week of acclimation, mice with no body surface damage, good general condition and flexible reaction were selected for the experiment. The test compounds were dissolved with DMSO, and were given a dose volume of 0.2 ml 10 g^−1, and a dose of 10 mg kg^−1, and given by gavage (oral) once a day. […] The mice were given the drug for 10 d, and after the last dose, the mice fasted for 12 h. The next day, blood was collected from the tail vein of the mice before and after the sugar load for 1 h and 2 h, and the blood glucose level of the mice before and after the sugar load was measured by the glucometer. […] The 12 h of fasting after the last administration, blood was taken from the orbital venous plexus (used to measure the blood glucose level after fasting). Each group was immediately given a subcutaneous injection of 0.2 μg kg^−1 of insulin. After 1 h and 2 h of injection, blood was taken again. (3) Cell survival experiment: The HUVEC cells were inoculated on the 96-well plate at the initial concentration of 3 × 10^3 cells/holes, and 100 μl RPMI 1640 medium were added to each hole. At 5% CO2 and 37 °C cell cultivation in 24 h, every pore solution in different concentrations. […] And determine the hole under 460 nm wavelength absorbance value (A).

Series [2] deals with healthy mice. Put plainly: Oral glucose tolerance test. It counts as in vivo. To be noted: for Blood glucose levels 1 h / Blood glucose levels 2 h / Blood glucose levels 0 h: 10 mg kg^−1 d^−1 oral for 10 d; for Blood glucose levels 1 h: 1 h after sugar load; for Blood glucose levels 2 h: 2 h after sugar load; for Blood glucose levels 0 h: fasted 12 h, before sugar load; for Effect in glucose tolerance test (in words): 10 mg kg^−1 d^−1 oral, 10 d. How it is done: In vivo experiments, glucose tolerance test, insulin tolerance test, cell survival experiment and acute toxicity were used as the test indicators (Tables 2, [3] and [4]). In Table 2, we chose dose 10 mg kg^−1 d^−1 and used oral administration. […] The mice were given the drug for 10 d, blood was collected from the tail vein of the mice before and after the sugar load for 1 h and 2 h, and the blood glucose level of the mice before and after the sugar load was measured by the glucometer.
as §1

In another series the target is T1, PPARγ (Homo sapiens, UniProt P37231).
T1 construct: expressed in transfected cells
T1 sequence (P37231 1-505): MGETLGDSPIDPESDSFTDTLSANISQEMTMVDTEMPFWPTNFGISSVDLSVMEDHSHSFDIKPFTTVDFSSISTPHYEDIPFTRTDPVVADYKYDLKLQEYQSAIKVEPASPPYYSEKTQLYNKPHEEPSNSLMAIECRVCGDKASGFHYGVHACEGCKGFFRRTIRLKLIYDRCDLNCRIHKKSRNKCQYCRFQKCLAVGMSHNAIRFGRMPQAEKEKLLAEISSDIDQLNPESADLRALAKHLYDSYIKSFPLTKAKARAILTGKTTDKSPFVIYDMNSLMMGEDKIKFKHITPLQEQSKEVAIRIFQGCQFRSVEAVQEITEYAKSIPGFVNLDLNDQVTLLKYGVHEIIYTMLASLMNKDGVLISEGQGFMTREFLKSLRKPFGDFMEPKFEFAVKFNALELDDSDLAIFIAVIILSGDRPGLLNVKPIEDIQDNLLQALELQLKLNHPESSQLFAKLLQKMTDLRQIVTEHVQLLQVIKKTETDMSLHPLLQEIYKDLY
Nature of the series: In vitro activation of PPARγ (cells containing PPAR, EC50). To be noted: n ≥ 8; 24 h; read-out: EC50 ± SD PPARγ. It counts as cell-based. How it is done:
According to the literature, the cells containing PPAR (α, β and γ) were obtained and transfected into 96-well plates the day before for cells culture. Transfection was performed according to the instructions of human PPAR enzyme-linked immunoassay. […] After 24 h, the drugs were added, and 20 μl of MTT was added to each well for another 6 h, and the cell liquid was collected by removing the culture medium, and 150 μl of DMSO was added to each hole. And the absorbance value (A) of each hole was measured under the wavelength of 460 nm.

A further series has as its system HUVEC cells. Put plainly: Cell survival experiment (cytotoxicity). The series is classed as cell-based. Particulars: for Cytotoxic effect (in words): 10^−3–10^−2 mol L^−1; for Cell survival rate: HUVEC cells. Here is the method: as §1
Series [3] is described as follows: Dissociation degree (pKa). It counts as physicochemical. An excerpt: (§2) Drug in vitro experiment was one of the basic contents to evaluate drugs activity, and it was a necessary approach to research drugs. Drugs’ efficacy was often affected by some physical and chemical properties of compounds, such as lipid–water partition coefficient (log p), and dissociation degree (pKa). […] In Table 1, we could find that target compounds were fat-soluble. The fat-soluble compounds were favourable for drugs absorption, and drugs were easy to enter the cells. […] The pKa will affect the absorption and delivery of the drugs, different environmental (acid and alkalinity) medicine may be different, sometimes exists in the form of ions, sometimes exists in the form of molecules. Usually in the form of ion drugs has no effect. Therefore, it was necessary to study the dissociation degree (pKa) of drugs to study the pharmacodynamics. […] After the physical and chemical properties were studied, the biological activity was studied. […] After that, the target compounds 6a, 6e, 6f, 6g and 6i had good biological activity and were preliminarily screened out for further study on PPARγ receptor agonist activity (Figure 5).

Series [4] is described as follows: Acute toxicity test (LD50). The series is classed as in vivo. To be noted: oral administration; n ≥ 3.
Series [5] in a line: Lipid–water partition coefficient (log p). It counts as physicochemical.
Text: as §2

Structures are written as SMILES.

On to `Cc1ccc(C(=O)NCCOc2ccc(CC3SC(=O)NC3=O)cc2)cc1` (stereo not shown) [Compound 6e, N-(2-(4-((2,4-dioxothiazolidin-5-yl)methyl)phenoxy)ethyl)-4-methylbenzamide], for which the “Effect in insulin tolerance test (in words)” value in the series on healthy mice [1] is on record as “good resistance activation to insulin”. Moreover, the “Blood glucose levels 1 h” value in the series with healthy mice [1] is 1.762 ± 0.453 mmol/L; with healthy mice [2], 6.003 ± 1.876 mmol/L. For the same compound, the “Blood glucose levels 2 h” value in the series with healthy mice [1] is 2.463 ± 1.211 mmol/L; with healthy mice [2], 2.953 ± 0.876 mmol/L. In addition, the entries for the “Blood glucose levels 0 h” value in the series on healthy mice [1] and in the series on healthy mice [2] were 5.411 ± 1.002 mmol/L and 3.312 ± 0.301 mmol/L, respectively. For the same compound, the “Effect in glucose tolerance test (in words)” value with healthy mice [2] is on record as “good resistance activation to glucose”. Also, at PPARγ, the half-maximal effective concentration (EC50) was 30 ± 10 nM. In addition, the “Cytotoxic effect (in words)” value in the series on HUVEC cells is “no obvious cytotoxic effect”. The Cell survival rate in the series with HUVEC cells (10^−2 mol l^−1) was determined as 94.3 ± 1.02%; with HUVEC cells (10^−3 mol l^−1) it was 99.1 ± 0.08%; with HUVEC cells (10^−4 mol l^−1), 100%; with HUVEC cells (10^−5 mol l^−1), 100%; in the series with HUVEC cells (10^−6 mol l^−1), 100%. Besides, the pKa in series [3] was 9.77. In addition, the “LD50 ± SD” value in series [4] was 2451.2 ± 1.24 mg/kg. In addition, the logP in series [5] was determined as 3.26.

On to `Cc1ccc(C(=O)NCCOc2ccc(CC3SC(=O)NC3=O)nc2)cc1` (stereo not shown) [Compound 6f, N-(2-((6-((2,4-dioxothiazolidin-5-yl)methyl)pyridin-3-yl)oxy)ethyl)-4-methylbenzamide], for which, in the series on healthy mice [1], the “Effect in insulin tolerance test (in words)” value is reported as “good resistance activation to insulin”. Further, the “Blood glucose levels 1 h” value in the series on healthy mice [1] worked out at 1.903 ± 0.611 mmol/L; with healthy mice [2], 6.651 ± 2.413 mmol/L. The entries for the “Blood glucose levels 2 h” value with healthy mice [1] and with healthy mice [2] were 2.602 ± 1.143 mmol/L and 4.121 ± 1.922 mmol/L, respectively. The “Blood glucose levels 0 h” value in the series with healthy mice [1] worked out at 5.714 ± 1.465 mmol/L; with healthy mice [2], 3.216 ± 0.315 mmol/L. Besides, the “Effect in glucose tolerance test (in words)” value with healthy mice [2] is recorded as “good resistance activation to glucose”. Moreover, the EC50 at PPARγ came to 100 ± 100 nM. In addition, the “Cytotoxic effect (in words)” value with HUVEC cells is “no obvious cytotoxic effect”. Besides, the Cell survival rate with HUVEC cells (10^−2 mol l^−1) is reported as 89.6 ± 1.34%; with HUVEC cells (10^−3 mol l^−1), 98.3 ± 0.45%; in the series on HUVEC cells (10^−4 mol l^−1) it was 99.2 ± 0.31%; in the series with HUVEC cells (10^−5 mol l^−1), 99.8 ± 0.09%; with HUVEC cells (10^−6 mol l^−1), 100%. The compound also gave a pKa in series [3] of 9.65. In addition, the “LD50 ± SD” value in series [4] worked out at 2013.6 ± 1.43 mg/kg. This compound also showed a logP in series [5] of 2.56.

For the compound `Cc1ccc(C(=O)NCCOc2ccc(CC3SC(=O)NC3=O)cc2)nc1` (stereo not shown) [Compound 6g, N-(2-(4-((2,4-dioxothiazolidin-5-yl)methyl)phenoxy)ethyl)-5-methylpicolinamide], the “Effect in insulin tolerance test (in words)” value with healthy mice [1] is given as “good resistance activation to insulin”. Besides, the “Blood glucose levels 1 h” value in the series on healthy mice [1] was 1.843 ± 0.544 mmol/L; in the series on healthy mice [2], 6.445 ± 2.220 mmol/L. Besides, the “Blood glucose levels 2 h” value worked out at 2.566 ± 1.224 mmol/L in the series on healthy mice [1] and 3.677 ± 1.730 mmol/L with healthy mice [2]. The “Blood glucose levels 0 h” value in the series with healthy mice [1] was 5.613 ± 1.246 mmol/L; in the series on healthy mice [2], 3.112 ± 0.279 mmol/L. Moreover, the “Effect in glucose tolerance test (in words)” value in the series with healthy mice [2] is reported as “good resistance activation to glucose”. Further, the EC50 at PPARγ was 80 ± 30 nM. In addition, the “Cytotoxic effect (in words)” value in the series with HUVEC cells is “no obvious cytotoxic effect”. Moreover, the Cell survival rate in the series with HUVEC cells (10^−2 mol l^−1) turned out to be 90.5 ± 1.54%; in the series with HUVEC cells (10^−3 mol l^−1), 98.6 ± 0.44%; in the series on HUVEC cells (10^−4 mol l^−1), 99.8 ± 0.09%; with HUVEC cells (10^−5 mol l^−1), 100%; with HUVEC cells (10^−6 mol l^−1) it was 100%. The pKa in series [3] stood at 9.45. Moreover, in series [4], the “LD50 ± SD” value is 2138.8 ± 1.36 mg/kg. This compound had a logP in series [5] of 2.83.

In the case of `O=C1NC(=O)C(Cc2ccc(OCCNC(=O)c3ccc(O)cc3)cc2)S1` (stereo not shown) [Compound 6i, N-(2-(4-((2,4-dioxothiazolidin-5-yl)methyl)phenoxy)ethyl)-4-hydroxybenzamide], the “Effect in insulin tolerance test (in words)” value in the series with healthy mice [1] is on record as “good resistance activation to insulin”. Besides, the entries for the “Blood glucose levels 1 h” value in the series with healthy mice [1] and in the series with healthy mice [2] were 1.792 ± 0.541 mmol/L and 6.401 ± 2.112 mmol/L, respectively. The “Blood glucose levels 2 h” value was determined as 2.501 ± 1.025 mmol/L with healthy mice [1] and 3.265 ± 1.236 mmol/L with healthy mice [2]. In addition, the “Blood glucose levels 0 h” value in the series on healthy mice [1] came to 5.592 ± 1.134 mmol/L; in the series on healthy mice [2], 3.218 ± 0.317 mmol/L. For the same compound, the “Effect in glucose tolerance test (in words)” value in the series on healthy mice [2] is reported as “good resistance activation to glucose”. Further, on PPARγ, the concentration giving a half-maximal response (EC50) amounted to 70 ± 20 nM. Further, the “Cytotoxic effect (in words)” value with HUVEC cells was “no obvious cytotoxic effect”. Moreover, the Cell survival rate in the series with HUVEC cells (10^−2 mol l^−1) is given as 92.1 ± 1.43%; with HUVEC cells (10^−3 mol l^−1), 98.8 ± 0.29%; in the series on HUVEC cells (10^−4 mol l^−1) it was 99.9 ± 0.02%; with HUVEC cells (10^−5 mol l^−1), 100%; in the series with HUVEC cells (10^−6 mol l^−1), 100%. The same compound had a pKa in series [3] of 9.03. Besides, in series [4], the “LD50 ± SD” value is 2268.9 ± 1.25 mg/kg. The logP in series [5] was 2.8.

As to `O=C1NC(=O)C(Cc2ccc(OCCNC(=O)c3ccc(O)cn3)cc2)S1` (stereo not shown) [Compound 6k, N-(2-(4-((2,4-dioxothiazolidin-5-yl)methyl)phenoxy)ethyl)-5-hydroxypicolinamide], on PPARγ, the EC50 came to 210 ± 110 nM. This compound displayed a pKa in series [3] of 8.66. For the same compound, in series [5], the logP amounted to 2.32.

On to `CN(CCOc1ccc(CC2SC(=O)NC2=O)cc1)c1ccccn1` (stereo not shown) [Rosiglitazone, reference compound], for which, in the series with healthy mice [2], the “Blood glucose levels 1 h” value stood at 6.351 ± 2.004 mmol/L, the “Blood glucose levels 2 h” value came to 3.654 ± 1.232 mmol/L and the “Blood glucose levels 0 h” value came out at 3.265 ± 0.345 mmol/L. The “LD50 ± SD” value in series [4] was 2246.1 ± 1.56 mg/kg.

The EC50 is the concentration that produces a half-maximal response. The term pKa denotes the negative logarithm of the acid dissociation constant. One may read the logP as the decadic logarithm of the partition coefficient of the neutral form, usually between octanol and water. Read a high logP as higher lipophilicity.
